In US7868026B2, “Therapeutic compounds” (Pfizer Inc., priority 2005, dated 2011):
Read-outs that look alike come from different tables or passages of the source.

Experiments:
Format in all cases: biochemical
[1] = target: T1, CYP3A4 (Homo sapiens, UniProt P08684); test: Determination of compound Kiapp against recombinant CYP3A4 enzyme (BFC fluorescent substrate)
Summary of the method: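 Kiapp derived from initial velocities over the first 5 min of BFC (5 uM) oxidation, using Morrison's tight-binding equation for non-partial and Szedlacsek's for partial inhibitors. Inhibitor first pre-incubated ≥30 min with CYP3A4 (5.5 or 8 nM, ±b5) in pH 7.0 phosphate/TCEP/2% DMF at room temperature; 200 uM NADPH initiated.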

[2] = target: T1, CYP3A4; test: Determination of IC50 against CYP3A4 by measurement of inhibition of testosterone metabolism (human liver microsomes, 6-β-OH-testosterone by LC-MS/MS); parameters: 0.1 mg/mL human liver microsomes; settings: read-out: IC50 (Testo.)
Summary of the method: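 6-β-OH-testosterone formation was read by LC-MS/MS (MRM, internal standard, standard curve) after eight minutes. Reaction contained testosterone 25 μM, NADPH 1 mM and microsomal protein 0.1 mg/mL in pH 7.4 potassium phosphate (100 mM).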

[3] = target: T1, CYP3A4; test: Determination of IC50 against CYP3A4 by measurement of inhibition of midazolam metabolism (human liver microsomes, 1-hydroxymidazolam by LC-MS/MS); parameters: 0.1 mg/mL human liver microsomes; settings: 2 μM midazolam, 0.1 mg/mL human liver microsomes
Summary of the method: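 Human liver microsomes (0.1 mg/mL) incubated 8 min with 2 μM midazolam and 1 mM NADPH in 100 mM potassium phosphate, pH 7.4. 1-Hydroxymidazolam quantified by LC-MS/MS (MRM) as peak area ratio to internal standard against a metabolite standard curve.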

[4] = Baculo. enzyme preparation, read-out: Kiapp (BFC, Baculo.)
[5] = Super. enzyme preparation, read-out: Kiapp (BFC, Super.)

T1 sequence (P08684 whole entry): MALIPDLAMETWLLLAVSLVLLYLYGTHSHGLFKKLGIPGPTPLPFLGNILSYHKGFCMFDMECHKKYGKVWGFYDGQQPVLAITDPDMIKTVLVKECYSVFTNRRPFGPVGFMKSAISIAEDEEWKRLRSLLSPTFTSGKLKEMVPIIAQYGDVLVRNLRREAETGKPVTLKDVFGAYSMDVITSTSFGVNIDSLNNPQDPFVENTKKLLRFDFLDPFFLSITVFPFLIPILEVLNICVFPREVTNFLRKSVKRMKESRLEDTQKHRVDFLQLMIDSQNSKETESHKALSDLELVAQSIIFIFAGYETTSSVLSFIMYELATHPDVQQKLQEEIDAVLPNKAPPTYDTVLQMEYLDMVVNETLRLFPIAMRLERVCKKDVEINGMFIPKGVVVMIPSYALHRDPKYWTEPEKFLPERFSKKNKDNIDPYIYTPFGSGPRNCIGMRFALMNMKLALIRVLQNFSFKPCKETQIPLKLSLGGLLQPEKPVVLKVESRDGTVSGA

CCCCNC(=O)c1ccccc1S(=O)(=O)Nc1cnccc1OC [Example 19, N-butyl-2-{[(4-methoxypyridin-3-yl)amino]sulfonyl}benzamide]
Ki [1, 4]: 329 nM
IC50 [2]: 169 nM
IC50 [3]: 69 nM

Cc1ccncc1NS(=O)(=O)c1ccccc1C(=O)NCCC(C)C [Example 179, N-(3-methylbutyl)-2-{[(4-methylpyridin-3-yl)amino]sulfonyl}benzamide]
Ki [1, 4]: 314 nM
Ki [1, 5]: 63.7 nM
IC50 [2]: 58 nM
IC50 [3]: 45 nM

COc1cncc(NS(=O)(=O)c2ccccc2C(=O)NCc2c(F)cccc2Cl)c1 [Example 213, N-(2-chloro-6-fluorobenzyl)-2-{[(5-methoxypyridin-3-yl)amino]sulfonyl}benzamide]
Ki [1, 4]: 27.2 nM
Ki [1, 5]: 9.8 nM
IC50 [2]: 13 nM
IC50 [3]: < 3 nM

CCOC(=O)N1CCN(C(=O)c2ccccc2S(=O)(=O)Nc2cccnc2)CC1 [Example 36, ethyl 4-{2-[(pyridin-3-ylamino)sulfonyl]benzoyl} piperazine-1-carboxylate]
Ki [1, 4]: > 1000 nM
IC50 [2]: > 750 nM
IC50 [3]: > 750 nM

Cc1cncc(NS(=O)(=O)c2ccccc2C(=O)NC(C)(C)C)c1 [Example 354, N-(tert-butyl)-2-{[(5-methyl-pyridin-3-yl)amino]sulfonyl} benzamide]
Ki [1, 4]: 305 nM
Ki [1, 5]: 25.3 nM
IC50 [2]: 61 nM
IC50 [3]: 31 nM

CCOc1cncc(NS(=O)(=O)c2ccccc2C(=O)N2CCCC2)c1 [Example 297, N-(5-ethoxypyridin-3-yl)-2-(pyrrolidin-1-ylcarbonyl)benzenesulfonamide]
Ki [1, 4]: 444 nM
Ki [1, 5]: 110 nM
IC50 [2]: > 750 nM
IC50 [3]: 170 nM

O=C(c1ccccc1S(=O)(=O)Nc1cccnc1)N1CCN(c2ccccn2)CC1 [Example 62, N-pyridin-3-yl-2-[(4-pyridin-2-ylpiperazin-1-yl)carbonyl]benzenesulfonamide]
Ki [1, 4]: > 1000 nM
Ki [1, 5]: 83.3 nM
IC50 [2]: 211 nM
IC50 [3]: 184 nM

COc1cncc(NS(=O)(=O)c2ccccc2C(=O)NCc2ccc(Cl)cc2F)c1 [Example 150, N-(4-chloro-2-fluorobenzyl)-2-{[(5-methoxypyridin-3-yl)amino]sulfonyl}benzamide]
Ki [1, 4]: 52.2 nM
Ki [1, 5]: 9.2 nM
IC50 [2]: 15 nM
IC50 [3]: 38 nM

O=C(NC1Cc2ccccc2C1)c1ccccc1S(=O)(=O)Nc1cccnc1 [Example 58, N-(2,3-dihydro-1H-inden-2-yl)-2-[(pyridin-3-ylamino)sulfonyl]benzamide]
Ki [1, 4]: 150 nM
Ki [1, 5]: 9.1 nM
IC50 [2]: 25.3 nM
IC50 [3]: 26.5 nM

Cc1cncc(NS(=O)(=O)c2ccccc2C(=O)NCCc2ccccc2OC(F)(F)F)c1 [Example 225, 2-{[(5-methylpyridin-3-yl)amino]sulfonyl}-N-{2-[2-(trifluoromethoxy)phenyl]ethyl}benzamide]
Ki [1, 4]: 15.7 nM
Ki [1, 5]: 1.7 nM
IC50 [2]: 9 nM
IC50 [3]: 7 nM

COc1ccncc1NS(=O)(=O)c1ccccc1C(=O)NC(C)(C)C [Example 254, N-(tert-butyl)-2-{[(4-methoxypyridin-3-yl)amino]sulfonyl}benzamide]
Ki [1, 4]: 284 nM
Ki [1, 5]: 122 nM
IC50 [2]: 120 nM
IC50 [3]: 40 nM

COc1cncc(NS(=O)(=O)c2ccccc2C(=O)NCc2cccc(Cl)c2Cl)c1 [Example 185, N-(2,3-dichlorobenzyl)-2-{[(5-methoxypyridin-3-yl)amino]sulfonyl}benzamide]
Ki [1, 4]: 17.1 nM
Ki [1, 5]: 2.8 nM
IC50 [2]: 10 nM
IC50 [3]: 11 nM

COc1ccc(CNC(=O)c2ccccc2S(=O)(=O)Nc2cncc(C)c2)cc1 [Example 361, N-(4-methoxybenzyl)-2-{[(5-methylpyridin-3-yl)amino]sulfonyl}benzamide]
Ki [1, 4]: 274 nM
Ki [1, 5]: 41.4 nM
IC50 [2]: 40 nM
IC50 [3]: 16 nM

Cc1cncc(NS(=O)(=O)c2ccccc2C(=O)NC(C)C2CC2)c1 (stereo not drawn) [Example 315, N-(1-cyclopropylethyl)-2-{[(5-methylpyridin-3-yl)amino]sulfonyl}benzamide]
Ki [1, 4]: 250 nM
Ki [1, 5]: 42.2 nM
IC50 [2]: 43 nM
IC50 [3]: 22 nM

Cc1cncc(NS(=O)(=O)c2ccccc2C(=O)NCCOc2ccccc2)c1 [Example 229, 2-{[(5-methylpyridin-3-yl)amino]sulfonyl}-N-(2-phenoxyethyl)benzamide]
Ki [1, 4]: 203 nM
Ki [1, 5]: 24.3 nM
IC50 [2]: 37 nM
IC50 [3]: 16 nM

CCOc1cncc(NS(=O)(=O)c2ccccc2C(=O)NC(C)(C)C)c1 [Example 294, N-(tert-butyl)-2-{[(5-ethoxy-pyridin-3-yl)amino]sulfonyl} benzamide]
Ki [1, 4]: 135 nM
Ki [1, 5]: 32.1 nM
IC50 [2]: 57 nM
IC50 [3]: 24 nM

COc1cncc(NS(=O)(=O)c2ccc(OCCCN(C)C)cc2C(=O)NCc2ccc(F)cc2)c1 [Example 266, 5-[3-(dimethylamino)propoxy]-N-(4-fluorobenzyl)-2-{[(5-methoxypyridin-3-yl)amino]sulfonyl}benzamide]
Ki [1, 4]: 145 nM
Ki [1, 5]: 26.8 nM
IC50 [2]: 109 nM
IC50 [3]: 54 nM

COc1cncc(NS(=O)(=O)c2ccccc2C(=O)N2CCOC(c3c(F)cccc3F)C2)c1 (stereo not drawn) [Example 196, 2-{[2-(2,6-difluorophenyl)morpholin-4-yl]carbonyl}-N-(5-methoxypyridin-3-yl)benzenesulfonamide]
Ki [1, 4]: 379 nM
Ki [1, 5]: 74.5 nM
IC50 [2]: 58 nM
IC50 [3]: 51 nM

Cc1cncc(NS(=O)(=O)c2ccccc2C(=O)N2CCC(C)CC2)c1 [Example 363, 2-[(4-methylpiperidin-1-yl)carbonyl]-N-(5-methylpyridin-3-yl)benzenesulfonamide]
Ki [1, 4]: 169 nM
Ki [1, 5]: 36.4 nM
IC50 [2]: 76 nM
IC50 [3]: 37 nM

Cc1cncc(NS(=O)(=O)c2ccccc2C(=O)N2CCCC2)c1 [Example 321, N-(5-methylpyridin-3-yl)-2-(pyrrolidin-1-ylcarbonyl)benzenesulfonamide]
Ki [1, 4]: 195 nM
Ki [1, 5]: 460 nM
IC50 [2]: 129 nM
IC50 [3]: 94 nM

CCCNC(=O)c1ccccc1S(=O)(=O)Nc1cccnc1 [Example 50, N-propyl-2-[(pyridin-3-ylamino)sulfonyl]benzamide]
Ki [1, 4]: > 1000 nM
IC50 [2]: 371 nM
IC50 [3]: 254 nM

CCOc1cncc(NS(=O)(=O)c2ccccc2C(=O)NC(C)C2CC2)c1 (stereo not drawn) [Example 299, N-(1-cyclopropylethyl)-2-{[(5-ethoxypyridin-3-yl)amino]sulfonyl}benzamide]
Ki [1, 4]: 56.5 nM
Ki [1, 5]: 20.6 nM
IC50 [2]: 53 nM
IC50 [3]: 26 nM

COc1ccncc1NS(=O)(=O)c1ccccc1C(=O)NCCc1ccccc1C [Example 275, 2-{[(4-methoxypyridin-3-yl)amino]sulfonyl}-N-[2-(2-methylphenyl)ethyl]benzamide]
Ki [1, 4]: 42.9 nM
Ki [1, 5]: 3.76 nM
IC50 [2]: 7 nM
IC50 [3]: 9 nM

Cc1cncc(NS(=O)(=O)c2ccccc2C(=O)NCc2cccc(F)c2)c1 [Example 342, N-(3-fluorobenzyl)-2-{[(5-methylpyridin-3-yl)amino]sulfonyl}benzamide]
Ki [1, 4]: 63 nM
Ki [1, 5]: 13.1 nM
IC50 [2]: 15 nM
IC50 [3]: 11 nM

O=C(NCc1ccc2ncccc2c1)c1ccccc1S(=O)(=O)Nc1cccnc1 [Example 89, 2-[(pyridin-3-ylamino)sulfonyl]-N-(quinolin-6-ylmethyl)benzamide]
Ki [1, 4]: > 1000 nM
Ki [1, 5]: 218 nM
IC50 [2]: 60 nM
IC50 [3]: 54 nM

CCOc1cncc(NS(=O)(=O)c2ccccc2C(=O)NCc2ccc(F)c(C(F)(F)F)c2)c1 [Example 288, 2-{[(5-ethoxypyridin-3-yl)amino]sulfonyl}-N-[4-fluoro-3-(trifluoromethyl)benzyl]benzamide]
Ki [1, 4]: 2.2 nM
Ki [1, 5]: 3.08 nM
IC50 [2]: 18 nM
IC50 [3]: 12 nM

COc1cncc(NS(=O)(=O)c2ccccc2C(=O)NC2C3CC4CC(C3)CC2C4)c1 (stereo not drawn) [Example 201, N-2-adamantyl-2-{[(5-methoxypyridin-3-yl)amino]sulfonyl}benzamide]
Ki [1, 4]: 29.3 nM
Ki [1, 5]: 8 nM
IC50 [2]: 16 nM
IC50 [3]: 9 nM

CCOc1ccncc1NS(=O)(=O)c1ccccc1C(=O)NC(C)C1CC1 (stereo not drawn) [Example 270, N-(1-cyclopropylethyl)-2-{[(4-ethoxypyridin-3-yl)amino]sulfonyl}benzamide]
Ki [1, 4]: 352 nM
Ki [1, 5]: 39.8 nM
IC50 [2]: 52 nM
IC50 [3]: 22 nM

COc1ccc(CNC(=O)c2ccccc2S(=O)(=O)N(C)c2cccnc2)cc1 [Example 336, N-(4-methoxybenzyl)-2-{[methyl(pyridin-3-yl)amino]sulfonyl}benzamide]
Ki [1, 4]: 319 nM
Ki [1, 5]: 68.2 nM
IC50 [2]: 19 nM
IC50 [3]: 37 nM

O=C(c1ccccc1S(=O)(=O)Nc1cccnc1)N1CCC(O)CC1 [Example 28, 2-[(4-hydroxypiperidin-1-yl)carbonyl]-N-pyridin-3-ylbenzenesulfonamide]
Ki [1, 4]: > 1000 nM
IC50 [2]: > 750 nM
IC50 [3]: > 750 nM

COCCCNC(=O)c1ccccc1S(=O)(=O)Nc1cncc(OC)c1 [Example 236, N-(3-methoxypropyl)-2-{[(5-methoxypyridin-3-yl)amino]sulfonyl}benzamide]
Ki [1, 4]: > 1000 nM
Ki [1, 5]: 142 nM
IC50 [2]: 223 nM
IC50 [3]: 132 nM
